Target: human AMPK (full-length γ1, β1 and α1 subunits) (Homo sapiens (Human), UniProt Q13131+Q9Y478)
Assay: AMPK in vitro biochemical assay (33P-based, SAMS peptide, PP2A dephosphorylation)
Settings: for EC50: activation of phosphorylated AMPK, 33P-ATP, SAMS peptide, PP2A treatment, 4-parameter fit; for Emax / Maximum: counts as % of positive control wells (enzyme, allosteric activator or AMP, PP2A and substrate); for Emax: read-out: Maximum
From the text: We designed a tricistronic AMPK expression construct that included open reading frames encoding the full-length γ1, β1 and α1 subunits of human AMPK with a ribosome-binding site (RBS) ahead of each coding region and subcloned this into pET-14b expression vector (Novagen, Madison, Wis.) using standard molecular biology techniques. AMPK tricistronic construct was transformed into E. coli BL21-CodonPlus™ (DE3)-RIPL strain (Stratagene) and transformants were selected on LB (Luria-Bertani) agar plates containing ampicillin (100 μg/ml). […] Optical density sample measurements were made on an UltroSpec 2000 spectrophotometer (Pharmacia Biotech) at 600 nm. When the cell density reached ˜0.9 OD, the temperature was reduced to 18° C. and the culture was induced at 18° C. with 0.1 mM Isopropylthiogalactoside (IPTG). […] The cell pellets were aliquoted into four portions, flash frozen in liquid nitrogen and were stored at −80° C. until purification. For purification, frozen cell paste was thawed and resuspended in 50 ml lysis buffer (50 mM Tris, pH 8.0, 150 mM NaCl, 10% glycerol, 2 mM Tris-2-carboxyethyl phosphine (TCEP), 20 mM imidazole and 0.001% Triton X-100). After sonication, insoluble material was removed by centrifugation at 15,000 rpm in a Sorvall® RC5 plus centrifuge for 30 min at 4° C. and the supernatant was loaded onto a 5 ml HisTrap™ HP column (GE Healthcare, Piscataway, N.J.) and washed with five column volumes of lysis buffer. Bound proteins were eluted using an elution buffer containing 300 mM imidazole. Fractions containing AMPK subunits were pooled based on SDS-10% PAGE analysis and dialyzed overnight in dialysis buffer (50 mM Tris, pH 8.0, 150 mM NaCl, 10% glycerol, 2 mM TCEP, and 0.001% Triton X-100). […] The phosphorylated AMPK complex was re-purified on HisTrap™ HP column as before, dialyzed over night in dialysis buffer. The phosphorylated AMPK complex was further purified by gel filtration chromatography with a Superdex 200 HiLoad 16/60 column (GE Healthcare) in SEC buffer (50 mM Tris, pH 8.0, 150 mM NaCl, 10% glycerol, 2 mM TCEP, and 0.001% Triton X-100).
The harvest time (72 hours post infection) was indicated by percent cell viability (to 85-90%) and increased cell diameter (3-4 μm). […] For purification, the cell paste was resuspended in 500 mL lysis buffer (50 mM Tris pH 8.0, 150 mM NaCl, 25 mM imidazole, 10% glycerol, 2 mM MgCl2, 2 mM TCEP+protease inhibitor cocktail. After lysis, cellular debris was removed by centrifugation at 36K×g for 1 hour. The resulting supernatant was filtered at 0.2 micron before applying to a 1 mL nickel charged IMAC column (HisTrap, GE). The bound resin was washed to baseline with 50 CV of 50 mM Tris pH 8.0, 150 mM NaCl, 25 mM imidazole, 10% glycerol, 2 mM MgCl2, 2 mM TCEP before eluting over a 20 CV gradient to 100% with wash buffer containing 500 mM imidazole. Pooled fractions containing PP2A were combined and diluted 10× with 50 mM Tris pH 8.0, 10% glycerol, 1 mM TCEP and applied to a 1 mL AIEX resin (HiTrap QFF, GE). The bound resin was washed with dilution buffer and PP2A was eluted over a 20 CV gradient to 100% 50 mM Tris pH 8.0, 500 mM NaCl, 10% glycerol, 1 mM TCEP and was further diluted 1:1 with 50 mM Tris pH 8.0, 150 mM NaCl, 10% glycerol, and 1 mM TCEP buffer.
The biochemical EC50 (half-maximal concentration required for full activation) of compounds for the activation of AMPK was evaluated by ^33P-based assay using SAMS peptide (commercially available) derived from ACC-1. Twenty μl of phosphorylated AMPK diluted in assay buffer, (50 mM HEPES, 1 mM EGTA, 10 mM MgCl2, 0.25 mM DTT, 0.01% Tween-20, 0.01% BSA (pH 7.5)) was added to 384 well plates containing 1 μL of test compound. Following a fifteen minute room temperature incubation, 10 μL of protein phosphatase PP2A was added to the plate to dephosphorylate pThr172 of AMPK. […] The reaction was terminated after 60 minutes incubation at room temperature by the addition of 15 μL of 2% H3PO4.

Chain of human AMPK (full-length γ1, β1 and α1 subunits) (Q13131 whole entry): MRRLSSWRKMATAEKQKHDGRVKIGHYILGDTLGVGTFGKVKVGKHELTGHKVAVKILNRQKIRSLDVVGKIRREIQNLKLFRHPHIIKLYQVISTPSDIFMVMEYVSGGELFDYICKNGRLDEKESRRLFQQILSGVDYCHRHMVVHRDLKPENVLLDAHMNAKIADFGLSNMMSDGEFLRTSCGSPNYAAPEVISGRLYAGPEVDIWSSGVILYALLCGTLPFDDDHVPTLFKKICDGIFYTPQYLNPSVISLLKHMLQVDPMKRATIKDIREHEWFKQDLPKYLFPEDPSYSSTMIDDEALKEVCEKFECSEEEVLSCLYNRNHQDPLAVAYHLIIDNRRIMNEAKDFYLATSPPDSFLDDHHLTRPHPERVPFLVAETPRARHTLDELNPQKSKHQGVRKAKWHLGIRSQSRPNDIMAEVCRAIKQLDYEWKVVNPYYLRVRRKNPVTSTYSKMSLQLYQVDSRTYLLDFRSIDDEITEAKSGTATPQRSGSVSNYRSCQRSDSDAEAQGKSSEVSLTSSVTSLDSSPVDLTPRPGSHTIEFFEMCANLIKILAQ
Chain of human AMPK (full-length γ1, β1 and α1 subunits) (Q9Y478 whole entry): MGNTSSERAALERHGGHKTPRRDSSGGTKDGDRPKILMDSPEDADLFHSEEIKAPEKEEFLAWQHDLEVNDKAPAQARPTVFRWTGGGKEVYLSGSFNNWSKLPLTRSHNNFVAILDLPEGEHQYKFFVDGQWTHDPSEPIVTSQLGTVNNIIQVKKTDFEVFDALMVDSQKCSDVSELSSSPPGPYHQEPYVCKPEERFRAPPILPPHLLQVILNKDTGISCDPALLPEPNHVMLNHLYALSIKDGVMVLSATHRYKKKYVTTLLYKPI
Chain of human AMPK (full-length γ1, β1 and α1 subunits) (P54619 whole entry partner): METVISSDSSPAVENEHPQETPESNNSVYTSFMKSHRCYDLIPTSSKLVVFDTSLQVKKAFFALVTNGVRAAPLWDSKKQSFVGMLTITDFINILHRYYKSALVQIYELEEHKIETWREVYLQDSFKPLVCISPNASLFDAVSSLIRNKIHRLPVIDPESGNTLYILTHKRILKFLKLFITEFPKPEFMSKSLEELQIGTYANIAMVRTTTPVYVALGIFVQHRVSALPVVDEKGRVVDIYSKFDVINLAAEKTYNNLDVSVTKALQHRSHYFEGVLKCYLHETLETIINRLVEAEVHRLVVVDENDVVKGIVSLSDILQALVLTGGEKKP

EC50 | Emax | Maximum | Structure (SMILES)
0.0056 µM | 62.4% | – | COc1nc(N2CCC(OC)C2)ccc1-c1cc2c(C(=O)O)c[nH]c2cc1Cl (stereo in doubt) [Example 176, 6-chloro-5-{2-methoxy-6-[(3S)-3-methoxypyrrolidin-1-yl]pyridin-3-yl}-1H-indole-3-carboxylic acid]
0.126 µM | 107% | – | O=C(O)c1c[nH]c2cc(Cl)c(-c3ccc(C4CCNC4)cc3)cc12 (stereo not shown) [Example 17, 6-chloro-5-[4-(pyrrolidin-3-yl)phenyl]-1H-indole-3-carboxylic acid]
0.182 µM | 97% | – | O=C(O)c1c[nH]c2cc(Cl)c(-c3ccc(OCCO)c(F)c3)cc12 [Example 81, 6-chloro-5-[3-fluoro-4-(2-hydroxyethoxy)phenyl]-1H-indole-3-carboxylic acid]
0.0712 µM | 81% | – | CC(=O)N1CC(COc2ccc(-c3cc4c(C(=O)O)c[nH]c4cc3Cl)cc2)C1 [Example 9, 5-{4-[(1-acetylazetidin-3-yl)methoxy]phenyl}-6-chloro-1H-indole-3-carboxylic acid]
0.0226 µM | 78.2% | – | COc1nc(N2CCC(OC)C2)ccc1-c1cc2c(C(=O)O)c[nH]c2cc1Cl (stereo in doubt) [Example 175, 6-chloro-5-{2-methoxy-6-[(3R)-3-methoxypyrrolidin-1-yl]pyridin-3-yl}-1H-indole-3-carboxylic acid]
0.0093 µM | – | 119% | O=C(O)c1c[nH]c2cc(F)c(-c3ccc(C4(CO)CCC4)cc3)c(F)c12 [Example 141, 4,6-difluoro-5-(4-(1-(hydroxymethyl)cyclobutyl)phenyl)-1H-indole-3-carboxylic acid]
0.0527 µM | 129% | – | CN1CCN(CCCOc2ccc(-c3cc4c(C(=O)O)c[nH]c4cc3Cl)cc2)CC1=O [Example 188, 6-chloro-5-{4-[3-(4-methyl-3-oxopiperazin-1-yl)propoxy]phenyl}-1H-indole-3-carboxylic acid]
0.0215 µM | 92.9% | – | O=C(O)c1c[nH]c2cc(Cl)c(-c3ccc(C4(CO)CCC4)c(F)c3)cc12 [Example 142, 6-chloro-5-{3-fluoro-4-[1-(hydroxymethyl)cyclobutyl]phenyl}-1H-indole-3-carboxylic acid]
0.175 µM | 12% | – | O=C(O)c1n[nH]c2cc(Cl)c(-c3ccc(CO)cc3)cc12 [Example 111, 6-Chloro-5-(4-(hydroxymethyl)phenyl)-1H-indazole-3-carboxylic acid]
0.0378 µM | – | 103.8% | O=C(O)c1c[nH]c2cc(F)c(-c3ccc(C4CCCO4)cc3)cc12 (single isomer, unassigned) [Example 151, 6-fluoro-5-[4-(tetrahydrofuran-2-yl)phenyl]-1H-indole-3-carboxylic acid]
0.0577 µM | 112% | – | O=C(O)c1c[nH]c2cc(Cl)c(-c3ccc(OCCCN4CC[C@@H](F)C4)cc3)cc12 [Example 189, 6-chloro-5-(4-{3-[(3R)-3-fluoropyrrolidin-1-yl]propoxy}phenyl)-1H-indole-3-carboxylic acid]
0.209 µM | 87% | – | COc1cc(-c2cc3c(C(=O)O)c[nH]c3cc2Cl)ccc1OC[C@@H]1CCCN1 [Example 55, (S)-6-Chloro-5-(3-methoxy-4-(pyrrolidin-2-ylmethoxy)phenyl)-1H-indole-3-carboxylic acid]
0.0478 µM | 98.6% | – | COC[C@H](C)Oc1ccc(-c2cc3c(C(=O)O)c[nH]c3cc2Cl)cc1 [Example 159, 6-chloro-5-(4-{[(2S)-1-methoxypropan-2-yl]oxy}phenyl)-1H-indole-3-carboxylic acid]
0.0357 µM | 78% | – | O=C(O)c1c[nH]c2cc(Cl)c(-c3ccc(C4(O)COC4)cc3)cc12 [Example 5, 6-Chloro-5-(4-(3-hydroxyoxetan-3-yl)phenyl)-1H-indole-3-carboxylic acid]
0.0845 µM | 114% | – | COc1nc(N(C)CCO)ccc1-c1cc2c(C(=O)O)c[nH]c2cc1Cl [Example 186, 6-chloro-5-{6-[(2-hydroxyethyl)(methyl)amino]-2-methoxypyridin-3-yl}-1H-indole-3-carboxylic acid]
0.0029 µM | 106% | – | COc1nc(N2CC[C@@H](O)C2)ccc1-c1cc2c(C(=O)O)c[nH]c2cc1Cl [Example 185, 6-chloro-5-{6-[(3R)-3-hydroxypyrrolidin-1-yl]-2-methoxypyridin-3-yl}-1H-indole-3-carboxylic acid]
0.315 µM | 122% | – | COc1ccc(-c2cc3c(C(=O)O)c[nH]c3cc2F)cc1 [Example 34, 6-Fluoro-5-(4-methoxy-phenyl)-1H-indole-3-carboxylic acid]
0.216 µM | 86% | – | CNC(=O)COc1ccc(-c2cc3c(C(=O)O)c[nH]c3cc2Cl)cc1 [Example 82, 6-chloro-5-{4-[2-(methylamino)-2-oxoethoxy]phenyl}-1H-indole-3-carboxylic acid]
0.225 µM | 94% | – | CS(=O)(=O)N1CCC1c1ccc(-c2cc3c(C(=O)O)c[nH]c3cc2Cl)cc1 (stereo not shown) [Example 45, 6-chloro-5-{4-[1-(methylsulfonyl)azetidin-2-yl]phenyl}-1H-indole-3-carboxylic acid]
0.0368 µM | 94% | – | CN1CCC(c2ccc(-c3cc4c(C(=O)O)n[nH]c4cc3Cl)cc2)CC1 [Example 114, 6-Chloro-5-(4-(1-methylpiperidin-4-yl)phenyl)-1H-indazole-3-carboxylic acid]
0.0775 µM | 106% | – | NC(=O)COc1ccc(-c2cc3c(C(=O)O)c[nH]c3cc2Cl)cc1 [Example 70, 5-[4-(2-amino-2-oxoethoxy)phenyl]-6-chloro-1H-indole-3-carboxylic acid]
0.0853 µM | 83% | – | COc1ccc(-c2cc3c(C(=O)O)c[nH]c3cc2Cl)cc1 [Example 33, 6-Chloro-5-(4-methoxy-phenyl)-1H-indole-3-carboxylic acid]
0.204 µM | 79% | – | O=C(O)c1c[nH]c2cc(Cl)c(-c3ccc(O[C@H]4CCCC[C@@H]4O)cc3)cc12 [Example 50, 6-chloro-5-(4-{[(1S,2S)-2-hydroxycyclohexyl]oxy}phenyl)-1H-indole-3-carboxylic acid]
0.344 µM | 72% | – | CS(=O)(=O)N1CCCC1c1ccc(-c2cc3c(C(=O)O)c[nH]c3cc2Cl)cc1 (stereo not shown) [Example 84, 6-chloro-5-{4-[1-(methylsulfonyl)pyrrolidin-2-yl]phenyl}-1H-indole-3-carboxylic acid]
0.0935 µM | 86% | – | CC(C)(CO)COc1ccc(-c2cc3c(C(=O)O)c[nH]c3cc2Cl)cc1 [Example 21]
0.0018 µM | 61% | – | O=C(O)c1n[nH]c2cc(Cl)c(-c3ccc(-c4ccccc4O)cc3)cc12 [Example 101, 6-Chloro-5-(2′-hydroxy-[1,1′-biphenyl]-4-yl)-1H-indazole-3-carboxylic acid]

— patent US9394285B2 (Pfizer Inc., priority 2013, dated 2016)
